Results reported in PubChem BioAssay (NCI).
Several values for one entry are separate records, joined by “and”; a condition that tells them apart may be missing. Equal entries are not always repeated.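 Interpolation was linear, between the two tested concentrations surrounding the appropriate level; five concentrations were tested over 48 hours in 96-well plates. At the GI50, growth is halved. TGI: concentration producing complete growth inhibition.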

Key:
Assay in all cases: NCI-60 cell line screen, 48 h
[1] = tested on: NCI-H226 lung
[2] = tested on: SK-MEL-5 melanoma
[3] = tested on: TK-10 renal
[4] = tested on: NCI-H460 lung
[5] = tested on: NCI-H522 lung
[6] = tested on: UO-31 renal
[7] = tested on: RXF 393 renal
[8] = tested on: DLD-1 colon
[9] = tested on: MDA-MB-435

SMILES	TGI [1]	TGI [2]	TGI [3]	TGI [4]	TGI [5]	TGI [6]	TGI [7]	TGI [8]	GI50 [9]	TGI [9]	GI50 [1]	GI50 [2]	GI50 [3]	GI50 [4]	GI50 [5]	GI50 [6]	GI50 [7]
Cn1cnc([N+](=O)[O-])c1Sc1n[nH]c(-c2ccc(Cl)cc2)n1	34.5 µM	29.8 µM	43.8 µM	53.6 µM	24.9 µM	60.5 µM	26.5 µM	52.5 µM									
CCOC(=O)C1CC(=O)C=C2CCCCC21 (centres undefined)		> 100 µM	> 100 µM	> 100 µM	> 100 µM	> 100 µM	> 100 µM	> 100 µM									
OCC1OC(N2C=C(c3nc4ccccc4s3)C3C=CC=CC32)C(O)C(O)C1O (centres undefined)	> 50 µM	30.5 µM	32 µM	> 50 µM	> 50 µM	> 50 µM	> 50 µM		11.8 µM	28.1 µM	14.5 µM	12.1 µM	12.5 µM	24 µM	> 50 µM	24.8 µM	18.9 µM
Cc1cc(-c2nc3sc(C)cn3c2/C=N/N=C(N)N)c(C)s1	40.8 µM	3.8 µM	18.6 µM	21.5 µM	> 100 µM	> 100 µM	32.7 µM		2.13 µM	4.79 µM	20.8 µM	1.89 µM	6.12 µM	6.18 µM	25.7 µM	32.7 µM	15 µM
O=Cc1ccc(-c2ccc(-c3nc4ccccc4s3)cc2)o1	> 100 µM	> 100 µM	54 µM	> 100 µM	> 100 µM	> 100 µM	> 100 µM		> 100 µM	> 100 µM	5.03 µM	96.4 µM	22.4 µM	76.4 µM	> 100 µM	> 100 µM	62.7 µM
COc1ccc(Sc2[nH]c(C=O)c3ccccc23)cc1	16.8 µM	25.5 µM	45.1 µM	11.2 µM	31.8 µM	22.2 µM	33.3 µM		2.68 µM	11.5 µM	2.62 µM	12.9 µM	10.6 µM	2.94 µM	14.3 µM	5.11 µM	10.7 µM
Cc1nnn(C)c1-c1cnc2c3ccc(C(C)(C)O)cc3n([C@H](c3ccccc3)C3CCOCC3)c2c1	23.4 µM	10.7 µM	11 µM	> 65.7 µM	20.9 µM	13.4 µM	20.4 µM		< 0.01 µM	> 100 µM	0.356 µM	< 0.01 µM	< 0.01 µM	0.966 µM	< 0.01 µM	< 0.01 µM	1.16 µM
COc1ccc2c(n1)Sc1nc3ccccc3nc1N2	34 µM	> 100 µM	80.1 µM	> 100 µM	> 100 µM	89.1 µM	> 100 µM			> 100 µM							
CCCCCSc1ccc2nc(NC(=O)OCC)sc2c1	> 100 µM	> 100 µM	52.8 µM	> 100 µM	0.865 µM	> 100 µM	9.19 µM		0.194 µM	0.763 µM	1.95 µM	0.658 µM	2.25 µM	0.523 µM	0.245 µM	1.39 µM	1.03 µM
CC(=O)OCC1OC(SC2=N/C(=C\c3ccc(Br)s3)C(=O)N2c2ccccc2)C(OC(C)=O)C(OC(C)=O)C1OC(C)=O (centres undefined)	> 100 µM	> 100 µM	> 100 µM	> 100 µM	> 100 µM and 94.3 µM	> 100 µM	57.2 µM and > 100 µM		86.3 µM and 32.2 µM	> 100 µM	46.9 µM and 15.7 µM					71.4 µM and 32.7 µM	
COc1cccc(/C=N\NC(=O)c2ccncc2)c1O	> 100 µM	29 µM	> 100 µM	> 100 µM	> 100 µM	56.8 µM	> 100 µM		19.2 µM	> 100 µM	10.4 µM	6.29 µM	4.78 µM	3.63 µM	3.24 µM	2.36 µM	5.49 µM
O=C(Nc1ccc(I)cc1F)c1cc(Br)ccc1O	4.41 µM	0.714 µM	9.3 µM	8.05 µM	4.44 µM	2.24 µM	3.6 µM		0.652 µM	4.64 µM	1.28 µM	0.251 µM	1.62 µM	0.452 µM	0.348 µM	0.346 µM	0.778 µM
CN1CCc2ccccc2C1Cc1ccccc1NC(=O)c1sc2ccccc2c1Cl (centres undefined)	> 100 µM	> 100 µM	> 100 µM	> 100 µM	> 100 µM	> 100 µM	> 100 µM			> 100 µM							
COc1ccc2cc3c4cc(OC)c(OC)cc4ccn3c2c1	> 100 µM	> 100 µM	> 100 µM	> 100 µM	> 100 µM	> 100 µM	> 100 µM	> 100 µM									
O=C(Nc1ccc(Cl)c(C(F)(F)F)c1)Nc1ccc(-c2cccnc2)cc1N1CCC(CO)CC1	9.79 µM	3.12 µM	4.76 µM	6.24 µM	3.43 µM	> 100 µM	3.34 µM		1.91 µM	4.53 µM	2.68 µM	1.63 µM	1.85 µM	2.32 µM	1.73 µM	2.43 µM	1.74 µM
CC(=O)O[C@@H]1c2c(c3c(=O)c4cccc(O)c4c(=O)c=3c2=[N+]=[N-])[C@H](OC(C)=O)[C@@H](OC(C)=O)[C@]1(C)O	1.45 µM and 2.18 µM	1.18 µM and 0.273 µM	1.14 µM and 0.365 µM	1.9 µM and 0.352 µM	0.776 µM and 0.201 µM	1.19 µM and 0.352 µM	1.28 µM and 0.296 µM		0.27 µM	1.42 µM and 0.88 µM	0.617 µM	0.112 µM	0.191 µM	0.149 µM	0.0693 µM	0.167 µM	0.147 µM

SMILES	TGI [1]	TGI [2]	TGI [3]	TGI [4]	TGI [5]	TGI [6]	TGI [7]	TGI [8]	GI50 [9]	TGI [9]	GI50 [1]	GI50 [2]	GI50 [3]	GI50 [4]	GI50 [5]	GI50 [6]	GI50 [7]
COc1cccc(S(=O)(=O)NC2=NCCN2C(=S)SN2CCn3c2nsc3=S)c1	> 100 µM	> 100 µM	81.5 µM	> 100 µM	40.9 µM	49.1 µM	46.9 µM		37.3 µM	> 100 µM	30.9 µM	37.9 µM	34.4 µM	58.3 µM	20.1 µM	23.3 µM	16.8 µM
CC(C)(C)c1cc(C[P+](c2ccccc2)(c2ccccc2)c2ccccc2)cc(C(C)(C)C)c1O	18.3 µM	0.716 µM	3.25 µM	2.59 µM	1.91 µM	7.14 µM	4.67 µM		0.289 µM	1.2 µM	1.45 µM	0.244 µM	0.486 µM	0.413 µM	0.33 µM	2.28 µM	1 µM
c1cc(OCCN2CCCC2)ccc1CNc1ccc2nc(CCC3CCCCC3)[nH]c2c1	3.6 µM	3.1 µM	7.97 µM	4.87 µM	4.47 µM	2.75 µM	3.23 µM		1.62 µM	3.08 µM	1.51 µM	1.68 µM	2.98 µM	2.13 µM	2.1 µM	1.42 µM	1.32 µM
O=C(COc1ccccc1)NNc1ccccc1	> 300 µM	> 300 µM	> 300 µM	> 300 µM		> 300 µM	> 300 µM		12.2 µM and 16.1 µM	> 300 µM	> 92.3 µM and 224 µM	46.2 µM and 104 µM	> 300 µM	17.1 µM and 15.8 µM	7.79 µM	10.3 µM and 20.1 µM	98.9 µM
COc1cc(-n2cc(-c3ccc(Cl)cc3)n(-c3ccccc3)c2=O)cc(OC)c1OC	97.1 µM	17.7 µM	> 100 µM	> 100 µM	> 76 µM	> 93.9 µM	> 100 µM		18.7 µM	> 86.3 µM	29.9 µM	3.99 µM	35.5 µM	14.9 µM	18.3 µM	16.6 µM	24.5 µM
COc1ccc(Nc2ncc(I)c(NCCCNC(=O)C3CCC3)n2)cc1	67.1 µM	28.7 µM	9.78 µM	36.8 µM	> 100 µM	3.85 µM	6.54 µM		17.1 µM	> 100 µM	3.91 µM	10.1 µM	0.897 µM	5.19 µM	20.9 µM	0.73 µM	1.27 µM
NC(=O)c1cn(C2CC(O)C(CO)O2)c2ncnc(N)c12 (centres undefined)	17.4 µM	31.9 µM	19.5 µM	> 100 µM	16.2 µM	18.5 µM	13.9 µM		2.42 µM	> 100 µM	3.19 µM	5.42 µM	1.96 µM	7.69 µM	4.27 µM	1.84 µM	2.08 µM
CCOC(=O)c1ccc(N2NC(=O)/C(=C/c3ccc([N+](=O)[O-])o3)C2=O)cc1	> 56.5 µM	> 54.9 µM	23.2 µM	> 60.7 µM	8.53 µM	13.8 µM	26 µM		15.1 µM	33 µM	> 41 µM	> 40.4 µM	9.04 µM	> 43.3 µM	4.18 µM	5.64 µM	11.3 µM
CCCN(CCC)c1ccc(/C=N/NC(=O)c2cccnc2)c(C)c1	26.3 µM	25.4 µM	38.5 µM	28.3 µM	30 µM	38.1 µM	30.7 µM		5.67 µM	20.8 µM	12 µM	12.8 µM	16 µM	14.2 µM	12.6 µM	15.6 µM	15.1 µM
CN1CCN(C)C1c1ccc(C2N(C)CCN2C)cc1	> 100 µM	89.7 µM	> 100 µM	> 100 µM	> 100 µM	> 100 µM	> 100 µM		34.5 µM	> 100 µM	> 100 µM	24.4 µM	> 100 µM	> 100 µM	> 100 µM	> 100 µM	> 100 µM
COc1ccc(C)c2sc(N(Cc3cccnc3)C(=O)c3ccc(C#N)cc3)nc12	> 100 µM	93.8 µM	> 100 µM	> 100 µM	> 100 µM	> 100 µM	99.8 µM		35.9 µM	> 100 µM	54.4 µM	24.4 µM	58.4 µM	40 µM	29.7 µM	23.4 µM	26.1 µM
CC(C)[C@@]12C[C@@H](OC(=O)C3CO3)[C@@](C)(O1)[C@@H]1CC[C@@H](C)[C@H]1[C@@H]2OC(=O)/C=C/c1ccccc1 (some centres undefined)	29.3 µM	30.2 µM	65.8 µM	34.2 µM	37.3 µM	5.57 µM	22.4 µM		18.4 µM	38.3 µM	13.5 µM	16.5 µM	29.6 µM	17.2 µM	17.4 µM	1.76 µM	7.86 µM
Nc1nc(Sc2ccc([N+](=O)[O-])c3nonc23)c2ncn(C3OC(CO)C(O)C3O)c2n1 (centres undefined)	29 µM	> 22.4 µM	> 37.2 µM	15.5 µM	14.2 µM	43.6 µM	> 62.5 µM		1.67 µM	> 57.1 µM	2.2 µM	2.4 µM	2.42 µM	0.311 µM	0.64 µM	0.902 µM	10.4 µM
O=C1OC2(c3ccc(O)cc3Oc3cc(O)ccc32)c2cccc3cccc1c23	52.1 µM	28 µM	58.1 µM	61.4 µM	43.7 µM	> 100 µM	26.9 µM		19.1 µM	38 µM	16.1 µM	14.6 µM	27.4 µM	23.1 µM	17.5 µM	17.1 µM	13.8 µM
COc1cc2c(/C=C3\C(=O)N(C)c4ccccc43)c[nH]c2cc1C	> 58.1 µM	> 40 µM	70.5 µM	> 37.1 µM	> 87.5 µM	> 62 µM	69.9 µM		1.62 µM	12.1 µM	20.3 µM	2.36 µM	10.5 µM		8.82 µM	11.5 µM	2.56 µM
O=S(O)O.O=S(O)O.[Co].[NH2-].[NH2-].[NH2-].[NH2-]	> 100 µM	> 100 µM	> 100 µM	> 100 µM	> 100 µM	> 100 µM	> 100 µM		> 100 µM	> 100 µM	> 100 µM	> 100 µM	> 100 µM	> 100 µM	> 100 µM	> 100 µM	> 100 µM
